These results are taken from patent publication US20220273659A1, “HETEROCYCLIC COMPOUNDS AS KINASE INHIBITORS” (NUVATION BIO INC., priority 2019, published 2022).

The test system of assay [1] is DU4475 breast carcinoma cells. The experiment in a line: Cancer cell proliferation assay, single agent (cell viability). It counts as cell-based. As to conditions: Homo sapiens, DU-4475; Table 4; Rb negative; treatment 144 Hr with medium change at 72 Hr; Cell Titer-Glo or resazurin. The method, boiled down:
(§1)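 Viability read by resazurin or CellTiter-Glo after 24 h treatment (BT-549) or 144 h with a 72 h medium change (MCF-7, DU4475). Compounds tested at 7–9 concentrations, e.g. 1.1 nM–10 μM, added the day after seeding; IC50 by nonlinear sigmoidal regression.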
In general terms: ATP-based viability assays read luminescence as a measure of living cells.

In another assay the target is T1, CDK1 (cyclin B) (Homo sapiens, UniProt P06493).
T1 construct: purchased Invitrogen Life Technologies (assay service)
The experiment in a line: Z'-LYTE kinase assay. In kind it is biochemical. As to the method: The plates were shaken for 30 seconds, and incubated for 60 minutes at room temperature. […] The plates were read on fluorescence plate reader with Dual emission at 445 nm and 520 nm.
The following equations were used for Z′-LYTE™ Screening Assay Data Analysis.

For a further assay, the target named is T2, CDK4 (Homo sapiens, UniProt P11802).
T2 construct: purchased Invitrogen PR8064A
The experiment in a line: In vitro kinase inhibition IC50, luminescence (ADP Glo), retinoblastoma substrate. It counts as biochemical. The note with it: read-out: CDK4/D1 IC50. The method, boiled down:
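Inhibition of CDK4 was quantified by ADP Glo luminescence with retinoblastoma as substrate. Reactions held 5 nM kinase, 1 μM retinoblastoma and 25 μM ATP and ran 2H at room temperature. A Synergy Neo reader took signals 15 min and 45 min after detection reagent, and percent inhibition was fitted to a four-parameter logistic model in XLfit to obtain IC50.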

The target in the next assay is T3, CDK6 (Homo sapiens, UniProt Q00534).
T3 construct: purchased Invitrogen PR8422B
Described as above. In kind it is biochemical. The note with it: read-out: CDK6/D1 IC50. The method, boiled down: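 IC50 derived by four-parameter logistic fit of percent inhibition, read as ADP-Glo luminescence. Reactions: 5 nM CDK6, 1 μM retinoblastoma, 25 μM ATP, test compound 0.1–200 nM final, 2 h at room temperature.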

A further assay concerns the target T4, PI3Kδ kinase (Homo sapiens, UniProt O00329).
T4 construct: purchased Reaction Biology Corporation (assay service)
Briefly: PI3Kδ kinase assay (ADP-Glo, Reaction Biology). In kind it is biochemical. The method, boiled down: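 Kinase in Tris-HCl 40 mM pH 7.5, MgCl2 20 mM, orthovanadate 3 mM, DTT 2 mM, 0.05% CHAPS, 1% DMSO, preincubated 10 min at room temperature with compound (about 0.5 nM–100 μM). ATP started a 30-min reaction at 30 °C. ADP-Glo luminescence converted to μM ADP via standard curve; IC50 from nonlinear regression.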

The target in a further assay is T5, CDK2 (cyclin A) (Homo sapiens, UniProt P24941).
T5 construct: purchased Invitrogen Life Technologies (assay service)
Briefly: Z'-LYTE kinase assay. It counts as biochemical. The method, boiled down:
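FRET-based Z′-LYTE read-out using 1.22–10.3 ng CDK2/cyclin A with Ser/Thr 12 peptide (2 μM in the 2× mix) and ATP (31 μM as the 4× solution), in HEPES pH 7.5, MgCl2, EGTA and BRIJ-35, for 60 min at room temperature. After 1 h of development, the 445/520 nm emission was read, and percent inhibition was fitted to a four-parameter logistic curve for IC50.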

The test system of assay [2] is MCF-7 breast adenocarcinoma cells. Briefly: Cancer cell proliferation assay, single agent (cell viability). In kind it is cell-based. As to conditions: Homo sapiens, MCF7, Table 4; Rb positive; treatment 144 Hr with medium change at 72 Hr; Cell Titer-Glo or resazurin. A digest of the protocol: as §1
Another assay deals with T6, FMS kinase (Homo sapiens, UniProt P07333).
T6 construct: purchased Invitrogen (Life Technologies)
Briefly: LanthaScreen Eu Kinase Binding Assay (ATP, fluorescent-PolyGT substrate). In kind it is biochemical. The method, boiled down: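 TR-FRET read (ex 340, em 495 and 520 nm) after EDTA/Tb-labelled antibody stop; IC50 by four-parameter logistic fit of percent inhibition. Reaction: 1.25 nM FMS, 10 min compound preincubation (3-fold series), then 1 h at room temperature with 10 μM ATP and 200 nM fluorescent PolyGT.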
Background: In TR-FRET formats the signal depends on donor and acceptor labels being close together.

Molecules are shown by their SMILES. Counter-ions that a name gives are not always drawn. Like-named read-outs stand apart in the source and are kept apart here. Bounds are passed on as bounds.

T4 sequence (O00329 whole entry): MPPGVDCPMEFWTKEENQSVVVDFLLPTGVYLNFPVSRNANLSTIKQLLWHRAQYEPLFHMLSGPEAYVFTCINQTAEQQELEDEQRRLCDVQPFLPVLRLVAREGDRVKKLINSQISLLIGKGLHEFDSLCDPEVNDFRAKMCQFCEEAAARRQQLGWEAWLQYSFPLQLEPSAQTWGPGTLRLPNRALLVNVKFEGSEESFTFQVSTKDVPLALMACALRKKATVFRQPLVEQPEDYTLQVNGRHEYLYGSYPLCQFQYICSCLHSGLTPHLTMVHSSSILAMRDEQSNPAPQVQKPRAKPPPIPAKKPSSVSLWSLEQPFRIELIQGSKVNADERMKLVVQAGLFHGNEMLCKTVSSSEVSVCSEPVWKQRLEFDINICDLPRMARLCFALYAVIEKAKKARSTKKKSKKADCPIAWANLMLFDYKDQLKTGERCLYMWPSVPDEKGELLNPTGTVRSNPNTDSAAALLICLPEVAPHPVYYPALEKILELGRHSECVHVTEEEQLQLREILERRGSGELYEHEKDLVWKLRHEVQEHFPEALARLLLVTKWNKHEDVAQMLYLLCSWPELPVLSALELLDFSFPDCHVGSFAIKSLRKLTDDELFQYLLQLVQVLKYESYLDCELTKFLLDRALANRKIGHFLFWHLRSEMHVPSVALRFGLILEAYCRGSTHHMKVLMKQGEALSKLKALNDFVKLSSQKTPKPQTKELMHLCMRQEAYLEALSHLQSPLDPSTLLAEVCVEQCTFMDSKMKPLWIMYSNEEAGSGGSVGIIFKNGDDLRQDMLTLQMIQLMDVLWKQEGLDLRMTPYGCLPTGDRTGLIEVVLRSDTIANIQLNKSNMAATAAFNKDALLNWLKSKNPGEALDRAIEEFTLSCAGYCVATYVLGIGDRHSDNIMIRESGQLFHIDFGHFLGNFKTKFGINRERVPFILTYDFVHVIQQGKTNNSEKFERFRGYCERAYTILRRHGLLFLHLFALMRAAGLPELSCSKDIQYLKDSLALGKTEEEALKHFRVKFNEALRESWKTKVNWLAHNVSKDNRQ
T4 sequence (P27986 whole entry partner): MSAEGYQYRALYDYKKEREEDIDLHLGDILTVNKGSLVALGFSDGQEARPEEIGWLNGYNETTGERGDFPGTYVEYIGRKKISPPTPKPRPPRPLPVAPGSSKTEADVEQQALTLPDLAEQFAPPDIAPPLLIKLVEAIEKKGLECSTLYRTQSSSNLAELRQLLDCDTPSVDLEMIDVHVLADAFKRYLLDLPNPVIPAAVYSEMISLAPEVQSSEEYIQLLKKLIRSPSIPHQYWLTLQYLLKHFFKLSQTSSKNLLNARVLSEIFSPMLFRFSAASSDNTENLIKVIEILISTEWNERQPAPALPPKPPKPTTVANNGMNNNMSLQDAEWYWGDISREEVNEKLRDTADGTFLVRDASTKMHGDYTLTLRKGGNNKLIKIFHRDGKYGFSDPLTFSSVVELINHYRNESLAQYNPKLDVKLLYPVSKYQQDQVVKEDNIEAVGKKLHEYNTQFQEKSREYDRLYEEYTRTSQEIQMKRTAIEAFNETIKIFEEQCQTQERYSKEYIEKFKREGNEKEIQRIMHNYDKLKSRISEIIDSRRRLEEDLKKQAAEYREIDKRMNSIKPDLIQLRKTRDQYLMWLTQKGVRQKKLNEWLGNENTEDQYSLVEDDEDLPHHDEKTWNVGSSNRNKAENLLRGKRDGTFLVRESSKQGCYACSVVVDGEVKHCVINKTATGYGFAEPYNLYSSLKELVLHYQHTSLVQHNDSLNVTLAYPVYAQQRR
T6 sequence (P07333 20-972): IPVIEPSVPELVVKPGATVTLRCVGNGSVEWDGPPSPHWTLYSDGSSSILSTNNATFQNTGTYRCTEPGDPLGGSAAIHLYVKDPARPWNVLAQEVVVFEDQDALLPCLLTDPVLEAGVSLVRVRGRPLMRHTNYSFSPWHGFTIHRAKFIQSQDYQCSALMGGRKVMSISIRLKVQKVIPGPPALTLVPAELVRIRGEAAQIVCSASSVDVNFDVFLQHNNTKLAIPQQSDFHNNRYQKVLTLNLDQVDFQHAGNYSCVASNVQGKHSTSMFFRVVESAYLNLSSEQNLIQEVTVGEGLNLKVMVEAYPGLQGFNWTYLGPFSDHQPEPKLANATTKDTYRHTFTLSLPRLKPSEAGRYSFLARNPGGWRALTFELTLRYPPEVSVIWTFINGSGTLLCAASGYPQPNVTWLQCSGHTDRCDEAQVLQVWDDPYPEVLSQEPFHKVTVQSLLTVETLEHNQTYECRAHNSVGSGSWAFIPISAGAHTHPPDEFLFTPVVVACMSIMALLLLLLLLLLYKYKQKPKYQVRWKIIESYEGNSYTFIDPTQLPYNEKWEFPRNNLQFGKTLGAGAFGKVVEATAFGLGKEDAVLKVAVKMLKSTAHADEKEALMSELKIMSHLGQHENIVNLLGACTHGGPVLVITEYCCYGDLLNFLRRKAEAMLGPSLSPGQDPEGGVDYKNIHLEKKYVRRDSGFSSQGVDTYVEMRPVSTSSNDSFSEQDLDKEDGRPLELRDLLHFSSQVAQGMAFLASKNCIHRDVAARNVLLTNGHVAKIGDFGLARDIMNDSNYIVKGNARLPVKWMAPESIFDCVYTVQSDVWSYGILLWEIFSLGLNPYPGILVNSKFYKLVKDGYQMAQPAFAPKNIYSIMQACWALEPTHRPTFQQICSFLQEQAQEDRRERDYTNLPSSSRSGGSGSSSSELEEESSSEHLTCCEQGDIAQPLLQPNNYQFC
T3 sequence (Q00534 whole entry): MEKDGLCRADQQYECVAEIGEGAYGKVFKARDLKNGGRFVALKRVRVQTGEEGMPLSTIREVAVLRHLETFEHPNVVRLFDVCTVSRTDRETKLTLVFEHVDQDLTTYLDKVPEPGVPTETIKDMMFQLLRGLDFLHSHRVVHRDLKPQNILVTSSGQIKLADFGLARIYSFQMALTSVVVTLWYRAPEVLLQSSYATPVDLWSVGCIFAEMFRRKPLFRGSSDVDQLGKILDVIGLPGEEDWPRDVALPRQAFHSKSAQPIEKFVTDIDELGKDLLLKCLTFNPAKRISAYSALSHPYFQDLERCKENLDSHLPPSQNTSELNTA
T3 sequence (P24385 whole entry partner): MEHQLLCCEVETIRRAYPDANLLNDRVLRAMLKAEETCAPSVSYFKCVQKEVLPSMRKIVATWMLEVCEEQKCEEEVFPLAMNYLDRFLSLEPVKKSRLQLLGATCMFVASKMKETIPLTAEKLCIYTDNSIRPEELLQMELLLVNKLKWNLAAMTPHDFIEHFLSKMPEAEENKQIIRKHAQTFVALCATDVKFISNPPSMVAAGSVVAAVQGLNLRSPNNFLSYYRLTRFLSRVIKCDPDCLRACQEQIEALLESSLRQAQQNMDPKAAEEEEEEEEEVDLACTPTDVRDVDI
T2 sequence (P11802 whole entry): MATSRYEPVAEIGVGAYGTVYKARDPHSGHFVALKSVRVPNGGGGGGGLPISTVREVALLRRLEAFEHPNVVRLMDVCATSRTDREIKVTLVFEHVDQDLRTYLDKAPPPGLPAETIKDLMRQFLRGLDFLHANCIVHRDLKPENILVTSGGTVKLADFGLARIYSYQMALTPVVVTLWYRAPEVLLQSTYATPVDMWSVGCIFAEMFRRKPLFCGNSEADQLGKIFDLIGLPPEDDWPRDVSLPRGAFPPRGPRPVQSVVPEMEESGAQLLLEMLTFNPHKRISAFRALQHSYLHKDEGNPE
T2 sequence (P24385 whole entry partner): as the sequence (P24385 whole entry partner) above
T1 sequence (P06493 whole entry): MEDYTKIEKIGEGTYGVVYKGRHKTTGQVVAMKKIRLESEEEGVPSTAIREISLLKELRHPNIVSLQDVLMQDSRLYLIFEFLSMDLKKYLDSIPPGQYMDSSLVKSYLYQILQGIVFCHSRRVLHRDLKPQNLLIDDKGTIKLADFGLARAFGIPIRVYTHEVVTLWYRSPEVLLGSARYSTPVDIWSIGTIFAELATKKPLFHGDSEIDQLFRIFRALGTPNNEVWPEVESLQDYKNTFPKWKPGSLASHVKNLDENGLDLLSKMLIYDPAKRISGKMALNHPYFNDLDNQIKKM
T1 sequence (P14635 whole entry partner): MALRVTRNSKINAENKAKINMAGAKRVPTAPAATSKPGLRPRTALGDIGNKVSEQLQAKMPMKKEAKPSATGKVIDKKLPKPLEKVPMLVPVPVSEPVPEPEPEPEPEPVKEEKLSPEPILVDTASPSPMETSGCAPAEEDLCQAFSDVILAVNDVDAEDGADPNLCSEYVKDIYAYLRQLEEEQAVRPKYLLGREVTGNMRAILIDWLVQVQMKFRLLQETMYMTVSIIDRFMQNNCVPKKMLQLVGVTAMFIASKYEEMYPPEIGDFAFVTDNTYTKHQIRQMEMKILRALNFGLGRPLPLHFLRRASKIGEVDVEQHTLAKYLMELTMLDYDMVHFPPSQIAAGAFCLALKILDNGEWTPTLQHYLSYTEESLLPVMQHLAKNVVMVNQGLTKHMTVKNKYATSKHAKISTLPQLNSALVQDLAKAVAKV

Take `N#Cc1cc2cnc(Nc3ccc4c(c3)CCNC4)cc2n(C2CCCC2)c1=O` [Compound No. 90, 1-cyclopentyl-2-oxo-7-((1,2,3,4-tetrahydroisoquinolin-6-yl)amino)-1,2-dihydro-1,6-naphthyridine-3-carbonitrile]: the IC50 in assay [1] is 4900 nM; at CDK1 (cyclin B) (read-out: CDK1/B IC50) it was over 5000 nM; at CDK4, 132 nM; at CDK6, 115 nM; on PI3Kδ kinase it was 4940 nM; on CDK2 (cyclin A) it was 619 nM.

As for `CN1CCC(c2ccc(Nc3cc4c(cn3)cc(C#N)c(=O)n4C3CCCC3)cc2)CC1` [Compound No. 89, 1-cyclopentyl-7-((4-(1-methylpiperidin-4-yl)phenyl)amino)-2-oxo-1,2-dihydro-1,6-naphthyridine-3-carbonitrile], the IC50 was 5200 nM in assay [1]; over 5000 nM at CDK1 (cyclin B) (read-out: CDK1/B IC50); 20 nM at CDK4; 10 nM on CDK6; 751 nM against PI3Kδ kinase; 874 nM against CDK2 (cyclin A).

With `N#Cc1cc2cnc(NC3CCN(S(=O)(=O)c4ccc(F)cc4)CC3)nc2n(C2CCCC2)c1=O` [Compound No. 361, 8-cyclopentyl-2-((1-((4-fluorophenyl)sulfonyl)piperidin-4-yl)amino)-7-oxo-7,8-dihydropyrido[2,3-d]pyrimidine-6-carbonitrile], the IC50 stood at 310 nM in assay [2]; 1040 nM in assay [1]; 157 nM against CDK1 (cyclin B); 1.3 nM on CDK4; 7.1 nM on CDK6; 539 nM on FMS kinase. The IC50 against CDK2 (cyclin A) is under 1 nM.

Turning to `CS(=O)(=O)N1CCC(Nc2ncc3cc(C#N)c(=O)n(CC4CCCCC4)c3n2)CC1` [Compound No. 348, 8-(cyclohexylmethyl)-2-((1-(methylsulfonyl)piperidin-4-yl)amino)-7-oxo-7,8-dihydropyrido[2,3-d]pyrimidine-6-carbonitrile], the IC50 in assay [2] was 725 nM; in assay [1], 6840 nM; at CDK1 (cyclin B) it was 1380 nM; on CDK4 it was 62 nM; on CDK6, 55 nM; on FMS kinase it was 31 nM. In addition, the IC50 on CDK2 (cyclin A) stood at 219 nM.

Take `CS(=O)(=O)N1CCC(Nc2ncc3cc(C#N)c(=O)n(C4COCC4O)c3n2)CC1` (stereo not drawn) [Compound No. 350, 8-(4-hydroxytetrahydrofuran-3-yl)-2-((1-(methylsulfonyl)piperidin-4-yl)amino)-7-oxo-7,8-dihydropyrido[2,3-d]pyrimidine-6-carbonitrile]: the IC50 in assay [2] was over 10000 nM; in assay [1] it was over 30000 nM; at CDK1 (cyclin B) (read-out: CDK1/B IC50), 2270 nM; on CDK4, over 200 nM; at CDK6, over 200 nM; at FMS kinase, over 5000 nM. For the same compound, the IC50 at CDK2 (cyclin A) was found to be 235 nM.

For the compound `N#Cc1cc2cnc(Nc3ccc4c(c3)CCNC4)nc2n(C2CCC2)c1=O` [Compound No. 91, 8-cyclobutyl-7-oxo-2-((1,2,3,4-tetrahydroisoquinolin-6-yl)amino)-7,8-dihydropyrido[2,3-d]pyrimidine-6-carbonitrile hydrochloride], the IC50 in assay [1] stood at 510 nM; on CDK1 (cyclin B) (read-out: CDK1/B IC50) it was 913 nM; on CDK4 it was 84 nM; at CDK6, 28 nM; at PI3Kδ kinase, 705 nM; on CDK2 (cyclin A) it was 79 nM.

As for `Cc1ccc(S(=O)(=O)N2CCC(Nc3ncc4cc(C#N)c(=O)n(C5CCCC5)c4n3)CC2)cc1` [Compound No. 360, 8-cyclopentyl-7-oxo-2-((1-tosylpiperidin-4-yl)amino)-7,8-dihydropyrido[2,3-d]pyrimidine-6-carbonitrile], the IC50 in assay [2] was 255 nM; in assay [1] it was 1420 nM; against CDK1 (cyclin B), 598 nM; at CDK4, 1.5 nM; at CDK6 it was 13 nM; on FMS kinase, over 5000 nM. This compound returned an IC50 on CDK2 (cyclin A) of under 1 nM.

On to `N#Cc1cc2cnc(Nc3ccc4c(c3)CCNC4)nc2n([C@H]2C[C@@H]3CC[C@H]2C3)c1=O` (relative stereo) [Compound No. 354, 8-((S,2S,4R)-bicyclo[2.2.1]heptan-2-yl)-7-oxo-2-(1,2,3,4-tetrahydroisoquinolin-6-ylamino)-7,8-dihydropyrido[2,3-d]pyrimidine-6-carbonitrile], for which the IC50 in assay [2] amounted to 120 nM; in assay [1], 320 nM; on CDK1 (cyclin B) (read-out: CDK1/B IC50) it was 534 nM; on CDK4, 12 nM; on CDK6 it was 12 nM; on FMS kinase it was 3.5 nM. Further, at CDK2 (cyclin A), the IC50 came out at 176 nM.

With `CC1(C)NCCc2cc(Nc3ncc4cc(C#N)c(=O)n(C5CCCC5)c4n3)ccc21` [Compound No. 92, 8-cyclopentyl-2-((1,1-dimethyl-1,2,3,4-tetrahydroisoquinolin-6-yl)amino)-7-oxo-7,8-dihydropyrido[2,3-d]pyrimidine-6-carbonitrile], the IC50 was determined as 420 nM in assay [1]; 118 nM on CDK1 (cyclin B) (read-out: CDK1/B IC50); 15 nM on CDK4; 6 nM on CDK6; 725 nM against PI3Kδ kinase; 16 nM against CDK2 (cyclin A).

Consider `CN1CCN(c2ccc(Nc3cc4c(cn3)cc(C#N)c(=O)n4C3CCCC3)cc2)CC1` [Compound No. 87, 1-cyclopentyl-7-((4-(4-methylpiperazin-1-yl)phenyl)amino)-2-oxo-1,2-dihydro-1,6-naphthyridine-3-carbonitrile], for which the IC50 in assay [1] is 6700 nM; at CDK1 (cyclin B) (read-out: CDK1/B IC50) it was over 5000 nM; at CDK4 it was 58 nM; at CDK6, 21 nM; on PI3Kδ kinase, 549 nM; at CDK2 (cyclin A), over 3640 nM.

For the compound `CCC(C)n1c(=O)c(C#N)cc2cnc(NC3CCN(S(C)(=O)=O)CC3)nc21` (stereo not drawn) [Compound No. 351, 8-(sec-butyl)-2-((1-(methylsulfonyl)piperidin-4-yl)amino)-7-oxo-7,8-dihydropyrido[2,3-d]pyrimidine-6-carbonitrile], the IC50 in assay [2] is 205 nM; in assay [1], 1400 nM; at CDK1 (cyclin B) (read-out: CDK1/B IC50), 117 nM; on CDK4, 48 nM; at CDK6, 15 nM; at FMS kinase, 1160 nM. Besides, the IC50 at CDK2 (cyclin A) is 18 nM.

Regarding `CS(=O)(=O)N1CC[C@@H](Nc2ncc3cc(C#N)c(=O)n(C4CCCC4)c3n2)[C@H](F)C1` [Compound No. 362, 8-cyclopentyl-2-((3R,4R)-3-fluoro-1-(methylsulfonyl)piperidin-4-ylamino)-7-oxo-7,8-dihydropyrido[2,3-d]pyrimidine-6-carbonitrile], the IC50 in assay [2] was 765 nM; in assay [1] it was 2680 nM; against CDK1 (cyclin B), 1280 nM; at CDK4, 6 nM; on CDK6, 15 nM; on FMS kinase it was 90 nM. In addition, the IC50 against CDK2 (cyclin A) amounted to 82 nM.

For `CCC(CC)n1c(=O)c(C#N)cc2cnc(NC3CCN(S(C)(=O)=O)CC3)nc21` [Compound No. 352, 2-((1-(methylsulfonyl)piperidin-4-yl)amino)-7-oxo-8-(pentan-3-yl)-7,8-dihydropyrido[2,3-d]pyrimidine-6-carbonitrile], the IC50 was 1420 nM in assay [2]; 1130 nM in assay [1]; 143 nM at CDK1 (cyclin B); 69 nM at CDK4; 21 nM on CDK6; over 5000 nM on FMS kinase. The IC50 on CDK2 (cyclin A) is 29 nM.

Take `N#Cc1cc2cnc(Nc3ccc4c(c3)CCNC4)nc2n(CC2CCCCC2)c1=O` [Compound No. 347, 8-(cyclohexylmethyl)-7-oxo-2-((1,2,3,4-tetrahydroisoquinolin-6-yl)amino)-7,8-dihydropyrido[2,3-d]pyrimidine-6-carbonitrile]: the IC50 is 405 nM in assay [2]; 1240 nM in assay [1]; 1530 nM on CDK1 (cyclin B) (read-out: CDK1/B IC50); over 173 nM at CDK4; over 174 nM at CDK6; 3 nM at FMS kinase. For the same compound, the IC50 at CDK2 (cyclin A) is 668 nM.
